What all share (assay type): physicochemical
Data set [1] in a line: Calcium salts, physical/chemical attributes in orange juice, 450 mg/100 mL calcium load. Particulars: for Brix/Acid Ratio: unfortified juice 18.3. The text has this:
(§1) The flavor of orange juice, for example, can be characterized by a unique balance of sweetness resulting from the sugar content and tartness resulting from the acid content. A challenge of fortifying orange juice with nutritionally significant amounts of calcium is maintaining the sweet to tart balance. This balance can be expressed analytically as the Brix to acid ratio, as described above. The Brix component of the ratio is the measure of soluble solids in the composition often determined by a refractometer. The acid component can be determined by titration with a base such as sodium hydroxide. The Brix to acid ratio is an analytical representation or measure of the sweet to tart taste balance.
A variety of calcium salts, i.e., calcium components, were evaluated to determine their effects on the Brix-acid ratio. In this evaluation, orange juices fortified with different calcium salts were prepared at 450 mg/100 mL of calcium load.

A short description of data set [2]: Calcium salts, physical/chemical attributes in orange juice, 350 mg/100 mL calcium load. The settings on record: for Brix/Acid Ratio: unfortified juice 18.3.
Description: as §1
A variety of calcium salts, i.e., calcium components, were again evaluated to determine their effects on the Brix-acid ratio but this time at 350 mg/100 mL calcium load.

A short description of data set [3]: pH of a 20% slurry in water. The text has this: Titratable acidity and pH can be used as measures of sour perception in, e.g., beverage applications. It is well known that acidity provides a flavor lift or increased perception of flavor in a beverage.

Data on 3 molecules can be found in patent US20070003671A1, “Two-part calcium fortified compositions and methods of making the same” (priority 2005, published 2007).

With `O=P([O-])([O-])O.[Ca+2]` [dicalcium phosphate anhydrous], in data set [1], the “Brix (48 Hours)” value is 12.04, the “Calcium - Juice (48 Hours)” value is recorded as 203 mg/100 mL, the “Titratable Acidity (%) (48 Hours)” value came to 0.674% and the “pH (48 Hours)” value worked out at 4.04. Besides, the “Brix/Acid Ratio” value in data set [1] was 17.8. Also, in data set [2], the “Brix (48 hrs)” value is given as 11.97, the “Calcium in Juice (48 hrs)” value came to 156 mg/100 mL, the “Titratable Acidity (%) (48 hrs)” value amounted to 0.677% and the “pH (48 hrs)” value was 4.04. In addition, the “Brix/Acid Ratio” value in data set [2] is 17.6. Besides, in data set [3], the pH of slurry entry is on record as “approximately 5.0”.

On to `O.O.O=P([O-])([O-])O.[Ca+2]` [dicalcium phosphate dihydrate], for which, in data set [1], the “Brix (48 Hours)” value is reported as 12.26, the “Calcium - Juice (48 Hours)” value is listed as 181 mg/100 mL, the “Titratable Acidity (%) (48 Hours)” value is 0.682% and the “pH (48 Hours)” value stood at 4.21. Besides, the “Brix/Acid Ratio” value in data set [1] was 18.0. In data set [2], the “Brix (48 hrs)” value amounted to 12.33, the “Calcium in Juice (48 hrs)” value is 141 mg/100 mL, the “Titratable Acidity (%) (48 hrs)” value was 0.667% and the “pH (48 hrs)” value turned out to be 4.17. Besides, the “Brix/Acid Ratio” value in data set [2] is 18.5. The molecule also yielded a pH of slurry in data set [3] of 7.4.

As to calcium gluconate monohydrate, in data set [1], the “Brix (48 Hours)” value turned out to be 13.91, the “Calcium - Juice (48 Hours)” value stood at 198 mg/100 mL, the “Titratable Acidity (%) (48 Hours)” value amounted to 0.653% and the “pH (48 Hours)” value is on record as 4.00. The “Brix/Acid Ratio” value in data set [1] turned out to be 21.3. Further, in data set [2], the “Brix (48 hrs)” value is recorded as 13.56, the “Calcium in Juice (48 hrs)” value is listed as 154 mg/100 mL, the “Titratable Acidity (%) (48 hrs)” value is on record as 0.640% and the “pH (48 hrs)” value was determined as 3.99. Moreover, the “Brix/Acid Ratio” value in data set [2] is 21.2.
